Laboratory results from US8975285B2, “P38 MAP kinase inhibitors” (Respivert Ltd., priority 2008, dated 2015).

What was measured:
[1] = system: differentiated U937 cells; assay: MTT assay in differentiated U937 cells; assay type: cell-based, human; parameters: key: Negative: no significant toxic effect observed in MTT assay
Description: Differentiated U937 cells were pre-incubated with compound for 4 hrs in 5% FCS or 10% FCS for 24 hrs and 72 hr. […] After 1 hr incubation, the media were removed, 200 ul of DMSO added to each well and the plates were shaken lightly for 1 h prior to reading the absorbance at 550 nm. The percentage loss of cell viability was calculated for each well relative to vehicle (0.5% DMSO)-treatment. Consequently an apparent increase in cell viability for drug treatment relative to vehicle is tabulated as a negative percentage.

[2] = system: LPS-induced neutrophil accumulation in BALF; assay: LPS-induced neutrophilia in the mouse: duration of action; assay type: in vivo; conditions: intra tracheal dosing, 12 or more hours of pre-dosing, BALF 8 h after LPS
Description: Non-fasted mice were dosed by the intra tracheal route with either vehicle, or the test substance at the time points (“pre-dose”) indicated with respect to the start of LPS treatment. At T=0, mice were placed into an exposure chamber and exposed to LPS. Eight hours after LPS challenge, animals were under anesthetized, the trachea cannulated and BALF extracted by infusing and withdrawing 1 ml of PBS into the lungs via a tracheal catheter. Total and differential white cell counts in the BALF samples were measured using a Neubaur haemocytometer. Cytospin smears of the BALF samples were prepared by centrifugation at 200 rpm for 5 min at room temperature and stained using a DiffQuik stain system (Dade Behring). Cells were counted using oil immersion microscopy.
Data for neutrophil numbers is reported as total and differential number (test substance relative to vehicle) of cells per mL of BALF, mean±S.E.M. (n=8).

`COCC(=O)Nc1cc(COc2ccc(NC(=O)Nc3cc(C(C)(C)C)nn3-c3ccc(C)cc3)c3ccccc23)ccn1` [Example 1, N-(4-((4-(3-(3-tert-Butyl-1-p-tolyl-1H-pyrazol-5-yl)ureido)naphthalen-1-yloxy)methyl)pyridin-2-yl)-2-methoxyacetamide] was tested, and the “Differentiated U937 cells MTT Assay 4, 24 h (10 μg/ml)” value [1] was “Negative^2” and the “inhibition of LPS-induced neutrophil accumulation” value [2] was “significant inhibition”.
